Measurements from PMC8152971, “Valeriana rigida Ruiz & Pav. Root Extract: A New Source of Caffeoylquinic Acids with Antioxidant and Aldose Reductase Inhibitory Activities” (Foods, 2021).
Marks after values point to notes of the source that are not given here.

Assays:
[1] = DPPH radical scavenging assay; settings: Trolox equivalent antioxidant capacity, mean ± SD, n ≥ 3
Method: The experiment was carried out as previously described. […] Thereafter, the absorbance was measured using a microplate reader (EL800, Bio-Tek Instruments, Winooski, VT, USA) at 570 nm.

[2] = ABTS radical scavenging assay; settings: Trolox equivalent antioxidant capacity, mean ± SD, n ≥ 3
Method: The experiment was conducted as previously described. In brief, 3.5 mM of potassium persulfate aqueous solution was used to prepare 0.2 mM of ABTS diammonium salt. The solution was diluted 10-fold using distilled water and allowed to produce ABTS radicals (ABTS^+) by keeping the solution in the dark for 14 h at room temperature. […] Equation (1) was used to calculate the ABTS^+ scavenging activity (%), where Acontrol is the absorbance of ABTS^+ solution free of samples, Asample is the absorbance of ABTS^+ solution incubated with a sample, Ablank1 is the absorbance of the test sample free of ABTS^+ solution, and Ablank2 is the absorbance of the diluted potassium persulfate solution.

[3] = Oxygen radical absorbance capacity (ORAC) assay; settings: Trolox equivalent antioxidant capacity, mean ± SD, n ≥ 3
Method: The oxygen radical absorbance capacity (ORAC) assay was performed as previously described. Briefly, 0. […] Next, 60 µL of AAPH (40 mM) was added to generate peroxyl radicals to initiate the reaction.

[4] = Hypochlorous acid (HOCl) scavenging assay; settings: for IC50: linear regression
Method: The HOCl scavenging assay was adapted from a previous study using 1,8-diaminonaphthalene as a fluorescence probe for hypochlorite. […] Next, the fluorescence intensity (λex = 360 ± 20 nm, λem = 460 ± 20 nm) was immediately measured using a microplate fluorescence reader (FLx800; Bio-Tek, Winooski, VT, USA). Trolox (final concentration 25–100 µg/mL) was used as a reference antioxidant.

[5] = target: T1, rat lens AR homogenate (aldose reductase) (Rattus norvegicus, UniProt P07943); experiment: AR inhibition assay; assay type: biochemical, Sprague–Dawley rats; settings: for IC50: rat lens AR, read-out: AR inhibitory Activity IC50
T1 construct: the lenses were removed from the eyes, ground in a mortar; from tissue; host or cells: lens of Sprague–Dawley rats
Method: The eyes of 10-week Sprague–Dawley rats (250–280 g) were removed and frozen at −70 °C before use. Thereafter, the lenses were removed from the eyes, ground in a mortar (precooled at −70 °C), and extracted using 0.1 M PBS of pH 6.2 (around 0.5 mL of buffer per two frozen rat lenses).
The AR inhibitory activities of the extract and the separated compounds were determined as described previously. […] Next, the reaction was initiated by adding 20 µL of the substrate (DL-glyceraldehyde dimmer, 25 mM in 0.1 M PBS of pH 7.0), and the values were further measured for 6 min at 340 nm (OD340) using an Epoch microplate spectrophotometer (BioTek Instruments, Winooski, VT, USA). […] The DMSO used for sample preparation was less than 0.4% (v/v) in the reaction system.

[6] = Partition coefficient (K upper/lower) in biphasic CCC solvent systems; assay type: physicochemical
Method: The solvent system was screened via HPLC and evaluated according to the partition coefficient (K value) of the target compounds on the principle introduced by Ito [32]. Briefly, four solvent systems comprising EtOAc, n-BuOH, […] solution to 29 mM, and then the corresponding K values of the target compounds under acidic (Kacid) or basic (Kbase) conditions were determined, as previously described: each acidified or basified solvent system was partitioned to upper layer and lower layer. Thereafter, the extract (about 1–2 mg) was prepared in a 1.5 mL tube and dissolved by adding equal volumes (each 500 µL) of the upper layer and lower layers, which were mixed by a vortex mixer and centrifuged for about 20 s using a C1301 Mini Centrifuge (Labnet International, South Korea). Next, the upper and lower phase sample solutions were respectively pipetted (each 200 µL) into a new 1.5 mL-tube and evaporated by nitrogen gas. Each sample residue was redissolved using 200 µL of MeOH and subjected to HPLC analysis with an injection volume of 20 µL. The K value was calculated as K = Aupper/Alower, where Aupper and Alower are the HPLC peak areas of the target component in the upper and lower phases, respectively.

[7] = read-out: AR inhibitory Activity Inhibition (%)
[8] = EtOAc/H2O, 1:1, 208 mM formic acid
[9] = EtOAc/n-BuOH/H2O, 2:3:5, 30 mM ammonia
[10] = EtOAc/n-BuOH/H2O, 2:3:5, 208 mM formic acid
[11] = EtOAc/n-BuOH/H2O, 3:2:5, 30 mM ammonia
[12] = EtOAc/n-BuOH/H2O, 3:2:5, 208 mM formic acid
[13] = EtOAc/n-BuOH/H2O, 4:1:5, 30 mM ammonia
[14] = EtOAc/n-BuOH/H2O, 4:1:5, 208 mM formic acid

| Structure (SMILES) | TE, DPPH [1] | TE, ABTS [2] | TE, ORAC [3] | HOCl Scavenging Activity Inhibition (%) ([4]; 6.25 µM) | HOCl Scavenging Activity Inhibition (%) ([4]; 12.5 µM) | IC50 [4] | inhibition at 0.195 µM [5, 7] | inhibition at 0.391 µM [5, 7] | inhibition at 0.781 µM [5, 7] | IC50 [5] | K(upper/lower) Value ([6]; EtOAc/H2O, 1:1, 30 mM ammonia) | K(upper/lower) Value [6, 8] | K(upper/lower) Value [6, 9] | K(upper/lower) Value [6, 10] | K(upper/lower) Value [6, 11] | K(upper/lower) Value [6, 12] | K(upper/lower) Value [6, 13] | K(upper/lower) Value [6, 14] | HOCl Scavenging Activity Inhibition (%) ([4]; 3.125 µM) | inhibition at 0.098 µM [5, 7] | also measured |
| --- | --- | --- | --- | --- | --- | --- | --- | --- | --- | --- | --- | --- | --- | --- | --- | --- | --- | --- | --- | --- | --- |
| O=C(/C=C/c1ccc(O)c(O)c1)O[C@@H]1C[C@](O)(C(=O)O)C[C@@H](OC(=O)/C=C/c2ccc(O)c(O)c2)[C@H]1OC(=O)/C=C/c1ccc(O)c(O)c1 [3,4,5-triCQA (7), 3,4,5-tri-O-caffeoylquinic acid] | 1.28 ± 0.04 ^a µmol Trolox Equivalents Per µmol Compound | 1.31 ± 0.05 ^a µmol Trolox Equivalents Per µmol Compound | 1.95 ± 0.15 ^b µmol Trolox Equivalents Per µmol Compound | 35.39 ± 1.17% | 52.93 ± 1.02% | 11700 nM | 27.6 ± 2.43% | 49.7 ± 0.94% | 69.8 ± 0.77% | 400 nM | 0.02 | 23.71 | 0.40 | 29.51 | 0.22 | 26.44 | 0.03 | 27.56 |  |  | HOCl Scavenging Activity Inhibition (%) ([4]; 25 µM): 84.32 ± 3.39% |
| O=C(/C=C/c1ccc(O)c(O)c1)O[C@H]1[C@H](O)C[C@](O)(C(=O)O)C[C@H]1OC(=O)/C=C/c1ccc(O)c(O)c1 [3,4-diCQA (4), 3,4-di-O-caffeoylquinic acid] | 1.09 ± 0.09 ^b µmol Trolox Equivalents Per µmol Compound | 1.06 ± 0.06 ^c µmol Trolox Equivalents Per µmol Compound | 3.26 ± 0.10 ^a µmol Trolox Equivalents Per µmol Compound | 50.28 ± 0.19% | 59.15 ± 1.19% | 5780 nM | 50.4 ± 3.34% | 68.67 ± 0.68% |  | 220 nM | 0.02 | 3.49 | 0.04 | 20.24 | 0.03 | 16.14 | 0.02 | 4.86 | 46.68 ± 2.87% | 18.9 ± 2.43% |  |
| O=C(/C=C/c1ccc(O)c(O)c1)O[C@@H]1C[C@](O)(C(=O)O)C[C@@H](OC(=O)/C=C/c2ccc(O)c(O)c2)[C@H]1O [3,5-diCQA (5), 3,5-di-O-caffeoylquinic acid] | 0.86 ± 0.08 ^c µmol Trolox Equivalents Per µmol Compound | 0.89 ± 0.05 ^d µmol Trolox Equivalents Per µmol Compound | 2.13 ± 0.07 ^b µmol Trolox Equivalents Per µmol Compound | 56.13 ± 3.01% | 62.86 ± 1.23% | 2930 nM | 62.3 ± 1.33% | 75.6 ± 1.33% |  |  | 0.01 | 7.71 | 0.12 | 38.56 | 0.01 | 35.91 | 0.01 | 14.23 | 49.56 ± 1.23% | 35.4 ± 1.33% |  |
| O=C(/C=C/c1ccc(O)c(O)c1)O[C@@H]1C[C@@](O)(C(=O)O)C[C@@H](O)[C@@H]1O [3-CQA (1), 3-O-caffeoylquinic acid] |  |  |  |  |  |  |  |  |  |  | 0.02 | 0.49 | 0.01 | 2.49 | 0.05 | 2.03 | 0.00 | 1.36 |  |  | inhibition at 1.5625 µM ([5]; 1.5625 µM, read-out: AR inhibitory Activity Inhibition (%)): 29.4 ± 3.4%; inhibition at 3.125 µM ([5]; 3.125 µM, read-out: AR inhibitory Activity Inhibition (%)): 45.8 ± 1.75%; inhibition at 6.25 µM ([5]; 6.25 µM, read-out: AR inhibitory Activity Inhibition (%)): 60.1 ± 1.22%; K(upper/lower) Value ([6]; n-BuOH/H2O, 1:1): 0.04; K(upper/lower) Value ([6]; n-BuOH/H2O, 1:1 + 8.7 mM acetic acid): 0.73 |
| O=C(/C=C/c1ccc(O)c(O)c1)O[C@@H]1C[C@](O)(C(=O)O)C[C@@H](O)[C@H]1O [5-CQA (2), 5-O-caffeoylquinic acid] |  |  |  |  |  |  |  | 30.8 ± 2.18% | 44.2 ± 1.17% | 910 nM | 0.01 | 0.95 | 0.01 | 6.86 | 0.03 | 5.48 | 0.01 | 2.43 |  |  | inhibition at 1.563 µM ([5]; 1.563 µM, read-out: AR inhibitory Activity Inhibition (%)): 63.8 ± 2.55% |
